Data set [1] deals with MDCK1 (Madin–Darby canine kidney) cells. Description: MTT antiproliferative assay, non-tumor MDCK1 cells. Type of data set: cell-based. Conditions: Canis lupus familiaris, MDCK1, 72 h, mean ± SD of three independent experiments, normal cells. In short, it runs like this: (§1)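 Following a modified NCI DTP protocol, cells were incubated with compounds (five 10-fold dilutions, 10^−7–10^−4 M) for 72 h at 37 °C. Viable cells were then quantified by MTT (4 h, A595).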
A general note: Formazan colour is commonly taken as a measure of viable cells.

A further data set concerns human fibroblasts (BJ). Description: MTT antiproliferative assay, normal BJ fibroblasts. Type of data set: cell-based. Conditions: Homo sapiens, Fibroblast, 72 h, MTT, mean ± SD of three independent experiments; normal cells. The method, boiled down: as §1
Data set [2] deals with HeLa (cervical adenocarcinoma) cells. Nature of the data set: MTT antiproliferative assay, HeLa. The format is cell-based. As to conditions: Homo sapiens, 72 h, mean ± SD of three independent experiments. In short, it runs like this:
as §1

The subject of data set [3] is CaCo-2 (colon adenocarcinoma) cells. Description: MTT antiproliferative assay, CaCo-2. As to conditions: Homo sapiens, Caco-2; 72 h, MTT, mean ± SD of three independent experiments. Type of data set: cell-based, human. In short, it runs like this: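 CaCo-2 cells, plated at 2 × 10^4 cells/mL in DMEM with 10 % FBS at 37 °C/5% CO2, were treated 24 h later with five 10-fold dilutions (10^−7 to 10^−4 M) for 72 h. Viability was measured by MTT (4 h, formazan dissolved in DMSO, OD 595 nm) against background and untreated controls. GI50 came from log-concentration versus percent-inhibition fits.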

Data set [4] relates to HuT78 (T-cell lymphoma) cells. Description: MTT antiproliferative assay, HuT78. The format is cell-based, human. Conditions: for IC50: Homo sapiens, HuT78, 72 h, 72 h, MTT, mean ± SD of three independent experiments; for SI (BJ) HuT78: SI = IC50 BJ / IC50 HuT78; for SI (MDCK) HuT78: SI = IC50 MDCK1 / IC50 HuT78. In short, it runs like this: as §1

Turning to `Fc1ccc2nc(-c3ccc(OCc4ccccn4)cc3)sc2c1` [19a], the melting point lay within 165 to 170 °C. In data set [1], this compound gave an IC50 of 1.1 ± 0.2 µM. Moreover, in the data set on human fibroblasts (BJ), the IC50 was greater than 100 µM. This compound also yielded an IC50 in data set [2] greater than 100 µM. In data set [3], this compound came in with an IC50 greater than 100 µM. The half-maximal inhibitory concentration (IC50) in data set [4] is greater than 100 µM.
`O=C(COc1ccc(-c2nc3ccc(Cl)cc3s2)cc1F)c1ccccc1` [15b, 6-Chloro-2-(3-fluoro-4-(2-oxo-2-phenylethoxy)phenyl)benzothiazole] returned a melting point of 192 to 195 °C. The IC50 in data set [1] was greater than 100 µM. The compound further had a 50% inhibitory concentration (IC50) in the data set on human fibroblasts (BJ) greater than 100 µM. The half-maximal inhibitory concentration (IC50) in data set [2] was greater than 100 µM. The compound further returned an IC50 in data set [3] greater than 100 µM. In data set [4], the IC50 is greater than 100 µM.
Compound `COc1cc(-c2nc3ccc(Cl)cc3s2)ccc1OCc1ccccn1` [18c] displayed a melting point of 173 to 176 °C. The same compound showed an IC50 in data set [1] of 41.4 ± 8.1 µM. In the data set with human fibroblasts (BJ), this compound gave an IC50 greater than 100 µM. For the same compound, 67.3 ± 7.8 µM corresponded to half-maximal inhibition in data set [2] (IC50). In data set [3], this compound gave an IC50 greater than 100 µM. Moreover, the half-inhibitory concentration (IC50) in data set [4] turned out to be 55.6 ± 34.6 µM.
As for `Fc1ccc2nc(-c3ccc(OCc4c[nH]nn4)c(F)c3)sc2c1` [22b, 6-Fluoro-2-(3-fluoro-4-((1H-1,2,3-triazol-4-yl)methoxy)phenyl)benzothiazole], the melting point was 177 to 180 °C. Also, the half-maximal inhibitory concentration (IC50) in data set [1] was determined as 1 µM. This compound showed a half-inhibitory concentration (IC50) with human fibroblasts (BJ) of 86.4 ± 20.9 µM. In addition, the IC50 in data set [2] is 50.6 ± 19.3 µM. The compound also had a half-maximal inhibitory concentration (IC50) in data set [3] greater than 100 µM. In addition, in data set [4], the concentration for half-maximal inhibition (IC50) worked out at 9.1 ± 2.8 µM and the “SI (BJ) HuT78” value came out at 9.49.
Compound `COc1cc(-c2nc3ccc(F)cc3s2)ccc1OCc1ccccn1` [19c] registered a melting point of 152 to 156 °C. In data set [1], this compound returned an IC50 of 1.1 ± 0.2 µM. The 50% inhibitory concentration (IC50) with human fibroblasts (BJ) is greater than 100 µM. Besides, the IC50 in data set [2] is greater than 100 µM. For the same compound, the IC50 in data set [3] was greater than 100 µM. Moreover, the concentration for half-maximal inhibition (IC50) in data set [4] is greater than 100 µM.
Compound `Fc1cc(-c2nc3ccccc3s2)ccc1OCc1cn(Cc2ccccc2)nn1` [26b, 2-(3-Fluoro-4-((1-benzyl-1H-1,2,3-triazol-4-yl)methoxy)phenyl)benzothiazole] gave a melting point of 198 to 201 °C. Further, the half-maximal inhibitory concentration (IC50) in data set [1] came out at 64.8 ± 38.5 µM. Also, the IC50 with human fibroblasts (BJ) was greater than 100 µM. Further, the IC50 in data set [2] was greater than 100 µM. Moreover, the 50% inhibitory concentration (IC50) in data set [3] is greater than 100 µM. In data set [4], this compound showed an IC50 greater than 100 µM.
As to `COc1cc(-c2nc3ccc(Cl)cc3s2)ccc1OCc1c[nH]nn1` [21c, 6-Chloro-2-(3-methoxy-4-((1H-1,2,3-triazol-4-yl)methoxy)phenyl)benzothiazole], the melting point was 183 to 188 °C. The IC50 in data set [1] turned out to be 43.2 ± 12.4 µM. The compound also came in with a half-inhibitory concentration (IC50) in the data set on human fibroblasts (BJ) greater than 100 µM. This compound also registered an IC50 in data set [2] greater than 100 µM. This compound had an IC50 in data set [3] greater than 100 µM. In data set [4], half-maximal inhibition (IC50) required 24.3 ± 6.5 µM, the “SI (BJ) HuT78” value was 4.11 and the “SI (MDCK) HuT78” value is reported as 1.78.
Consider `Fc1ccc2nc(-c3ccc(OCc4cn(Cc5ccccc5)nn4)c(F)c3)sc2c1` [25b, 6-Fluoro-2-(3-fluoro-4-((1-benzyl-1H-1,2,3-triazol-4-yl)methoxy)phenyl)benzothiazole], for which the melting point was 205 to 208 °C. In data set [1], this compound returned a half-inhibitory concentration (IC50) of 51.3 ± 4.6 µM. For the same compound, the IC50 in the data set with human fibroblasts (BJ) is greater than 100 µM. In addition, the IC50 in data set [2] is greater than 100 µM. The 50% inhibitory concentration (IC50) in data set [3] is greater than 100 µM. Further, in data set [4], the IC50 came to 19.7 ± 10.6 µM, the “SI (BJ) HuT78” value came out at 5.07 and the “SI (MDCK) HuT78” value is listed as 2.6.
In turn, `Fc1cc(-c2nc3ccc(Cl)cc3s2)ccc1OCc1c[nH]nn1` [21b, 6-Chloro-2-(3-fluoro-4-((1H-1,2,3-triazol-4-yl)methoxy)phenyl)benzothiazole] had a melting point of 205 to 209 °C. In data set [1], this compound returned a concentration for half-maximal inhibition (IC50) of 10.1 ± 4.5 µM. Half-maximal inhibition with human fibroblasts (BJ) (IC50) required 84.1 ± 24.7 µM. Moreover, the IC50 in data set [2] is greater than 100 µM. In data set [3], the IC50 is greater than 100 µM. For the same compound, in data set [4], the half-maximal inhibitory concentration (IC50) was 3.6 ± 3.1 µM, the “SI (BJ) HuT78” value was 23.36 and the “SI (MDCK) HuT78” value was 2.8.

As a reminder, the IC50 is the midpoint of a concentration-inhibition curve. A lower IC50 goes with higher potency. As usually defined, the melting point is the temperature, or range, at which the solid turns liquid.

These data come from article PMC9785280, “Synthesis, Antiproliferative Evaluation and QSAR Analysis of Novel Halogen- and Amidino-Substituted Benzothiazoles and Benzimidazoles” (International Journal of Molecular Sciences, 2022).
